Measured values: article PMC10515590 (ACS Omega, 2023)
≈ marks a conversion by molar mass, not a printed value. Where two headings read alike, the source gives them in different places.

Assays:
[1] = cited from earlier work
[2] = Pharmacokinetic study after oral administration; type: in vivo, BALB/c mice; conditions: female, BALB/c, mouse, plasma, 30 mg/kg
[3] = after oral administration; cited from earlier work
[4] = Powder dissolution, USP apparatus II; type: physicochemical; conditions: pH 6.8
[5] = Shake flask solubility in pH 6.8 phosphate buffer; type: physicochemical
[6] = first pKa, 24 for cocrystal coformers

In the case of O=C(O)c1ccnc(C(=O)O)c1 [pyridine 2,4-dicarboxylic acid], the pKa [1, 6] is given as 2.15.

In the case of O=C(O)c1ccc(O)cc1O [2,4-dihydroxybenzoic acid], the pKa ([1]; second pKa, ref 24 for 2,4-dihydroxybenzoic acid) is given as 8.5.

For O=C(O)CCCC(=O)O [glutaric acid], the solubility of coformer ([1]; highly soluble coformers) is listed as 1600 mg/mL.

For O=C(O)c1c(O)cccc1O [2,6-dihydroxybenzoic acid], the “log P” value ([1]; coformers) is listed as 2.14.

For Oc1ncnc2[nH]ncc12 [ALO, 1H-pyrazolo[3,4-d]pyrimidine-4(2H)-one], the AUC(0-t) [2] is given as 36900 ng·h/mL, the Cmax [2] is given as 7010 ± 187 ng/mL and the aqueous solubility [1] is given as 0.8 mg/mL (≈ 5.88 mM). The pKa [1, 6] was 10.1, the “time within which the drug is metabolized” value [3] was no more than 2 h and the solubility at 1 h [4] was 0.676 mg/mL (≈ 4.97 mM). It also gave a solubility at 4 h [5] of 0.687 mg/mL (≈ 5.05 mM).
